{"source": "paper PMC9946977", "about": "“Identification of linderalactone as a natural inhibitor of SHP2 to ameliorate CCl4-induced liver fibrosis” (Frontiers in Pharmacology, 2023)", "key": {"[1]": {"target": "T1, SHP2-PTP K366A/Q510A double mutant (Homo sapiens, UniProt Q06124, K366A/Q510A)", "T1 construct": "Human SHP2 PTP domain (A237–I529) expression constructs; His-tag; made in house; host or cells: E. coli BL21 (DE3)", "T1 sequence (Q06124 237-529 K366A/Q510A)": "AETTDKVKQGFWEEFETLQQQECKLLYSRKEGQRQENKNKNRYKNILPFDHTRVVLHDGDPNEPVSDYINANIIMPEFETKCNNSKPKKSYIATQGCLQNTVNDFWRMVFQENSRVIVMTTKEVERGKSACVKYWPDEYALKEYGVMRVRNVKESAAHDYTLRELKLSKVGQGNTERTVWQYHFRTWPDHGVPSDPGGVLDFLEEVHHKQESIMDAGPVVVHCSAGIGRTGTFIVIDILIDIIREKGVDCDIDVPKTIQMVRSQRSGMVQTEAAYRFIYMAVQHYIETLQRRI", "experiment": "BLI assay, SHP2-PTP K366A/Q510A double mutant", "type": "binding", "method": "Human SHP2 PTP domain (A237–I529) expression constructs were engineered by cloning PTPN11 (NP_002825.3) into the pET30 plasmid with a His-tag to support further protein purification. The K366A/Q510A double mutation was introduced into the wild-type template using a site-directed mutagenesis kit (E0554S; New England Biolabs). The expression constructs were sequenced and transformed into BL21 (DE3)-competent cells. E. coli cells were grown at 37°C in an LB culture medium in the presence of […] kanamycin until the OD600 reached 1.0. The medium was then cooled to 18°C and 1 mM isopropyl ß-D-1-thiogalactopyranoside (IPTG) was added to induce protein expression overnight.\nCell pellets were collected and suspended in a buffer of 50 mM Tris-HCl (Ph = 8.5), 150 mM NaCl supplemented with 10% glycerol, and lysed by homogeniser (JN-BIO, China). […]\nThe BLI assay was performed using a FortéBio Octet 96 system. […] After equilibrium, the kinetics of the LIN and SHP2-PTP association were analysed by soaking the SSA sensors in a compound solution with various LIN concentrations for 300 s (6.25, 12.5, 25, 50, 100, and 200 μM), followed by 300 s of dissociation in the same HEPES buffer. The equilibrium constant (KD) values were assessed using the FortéBio data analysis software by fitting the kinetic data using a 1:1 binding model."}, "[2]": {"tested_on": "SHP2-depleted LX-2 cells", "experiment": "SHP2 knockdown (siRNA) LX-2 cells treated with LIN", "type": "cell-based, human", "conditions": "LX-2 cells transfected with SHP2 siRNA", "method": "The LX-2 cell line was purchased from the Cell Bank Type Culture Collection of the Chinese Academy of Sciences (Shanghai, China). Cells were cultured in DMEM supplemented with 10% [v/v] foetal bovine serum, 2 mM glutamine, 100 U/ml penicillin, and […] streptomycin. SHP-2 and control siRNAs were obtained from Suzhou GenePharma Co., Ltd. (sense 5'-3': GAGAGAGGAAAGAGUAAAUTT; antisense 5'-3': AUUUACUCUUUCCUCUCUCTT). Transfection was performed according to the manufacturer’s instructions. Subsequent real-time PCR and western blotting were performed to analyse transfection efficiency.\nTotal RNA was extracted from liver tissues and LX-2 cells using the TRIzol reagent. cDNA was synthesised using a PrimeScript RT Master Mix kit. Real-time PCR was performed using SYBR Green premix according to the manufacturer’s instructions. Relative expression of target genes was normalised to actin, analysed by the delta-delta-CT method and given as a ratio compared with the vehicle control. Primer sequences used in this study are listed in Supplementary Material."}, "[3]": {"target": "T2, SHP2-PTP WT (Homo sapiens, UniProt Q06124)", "T2 construct": "Human SHP2 PTP domain (A237–I529) expression constructs; His-tag; made in house; host or cells: E. coli BL21 (DE3)", "T2 sequence (Q06124 237-529)": "T1 sequence (Q06124 237-529 K366A/Q510A) with A130K, A274Q", "experiment": "BLI assay, wildtype SHP2-PTP", "conditions": "1:1 binding model", "method": "The BLI assay was performed using a FortéBio Octet 96 system. To label the biotin group on SHP2 proteins, NHS-PEG12-Biotin […] was added to the purified SHP2-PTP solution […] at 1.5:1 ratio for 2 h at 4°C. The reaction mixture was then loaded onto a column (GENEMORE, #G-MM-IGT) to remove excess free biotin. The biotin-labelled-SHP2-PTP protein was loaded onto super streptavidin (SSA) sensors (#18-5057, Octet) in a buffer containing […] 25 mM HEPES, 150 mM NaCl, and 0.02% (v/v) Tween-20. After equilibrium, the kinetics of the LIN and SHP2-PTP association were analysed by soaking the SSA sensors in a compound solution with various LIN concentrations for 300 s (6.25, 12.5, 25, 50, 100, and 200 μM), followed by 300 s of dissociation in the same HEPES buffer. The equilibrium constant (KD) values were assessed using the FortéBio data analysis software by fitting the kinetic data using a 1:1 binding model."}}, "note": "Changes are numbered by the printed parent chain."}
{"molecule": "C/C1=C\\CCC2=C[C@@H](OC2=O)c2c(C)coc2C1", "note": "[LIN, linderalactone]", "values": [{"measurement": "BLI response value", "setting": "[1]; 200 μM LIN", "value": "lower than 0.2"}, {"measurement": "effect of K366A/Q510A mutation on binding affinity between LIN and SHP2-PTP", "setting": "[1]; BLI", "value": "significantly eliminated"}, {"measurement": "sensitivity of fibrogenic gene expression to LIN treatment", "setting": "[2]", "value": "much less sensitive"}, {"measurement": "Kd", "setting": "[3]", "value": 666, "unit": "µM"}]}
